In PMC9106797, “Formation and Identification of a 5-(Hydroxymethyl)-2-Furfural-Zingerone Condensate and Its Cytotoxicity in Caco-2 Cells” (Frontiers in Nutrition, 2022):
Several values for one entry are separate records, joined by “and”; a condition that tells them apart may be missing. Equal values may be shown once.

Tests used:
[1] = test system: FVB/N mice; set-up: method as in PMID 22349055; settings: FVB/N mice, 31.25, 62.5, 125 and 250 mg SMF/kg; cited from earlier work
[2] = Cell viability assay (CCK-8); assay type: cell-based; settings: human, Caco-2 cells, read-out: IC50, cytotoxicity against Caco-2 cells; for IC50 at 24 h: 24 h incubation; for IC50 at 48 h: 48 h incubation
Procedure: The Caco-2 cell line (ATCC HTB-37) was obtained from the American Type Culture Collection (Rockville, MD, USA). Cells were cultivated by the method of Kosińska-Cagnazzo et al. ([30]) with slight modifications. Specifically, α-MEM medium supplemented with 10% FBS, 1% penicillin/streptomycin, and 1% NEAA was used to cultivate Caco-2 cells at 37°C and 5% (v/v) CO2 atmosphere. When the cells reached 80–90% confluence, they were detached with 0.25% trypsin-EDTA and further sub-cultured on fresh growth medium. Cells between passages 30 and 35 were used.
Cell viability was measured by the CCK-8 method as described by Zhao et al. ([31]) with modifications. Briefly, Caco-2 cells at a density of 2.5 × 10^4 cells/well were seeded into 96-well plates and maintained at 37°C under a humidified atmosphere containing 5% CO2 and 95% air for 24 h. Subsequently, the origin culture medium was removed, and different concentrations (2, 4, 8, 16, 32, and 64 mM) of HMZ and HMF were added. Three duplicate wells were set for each concentration. The cells were further incubated for 24 and 48 h, respectively. Then, 10 μL of CCK-8 solution was added into each well for 2 h, and the absorbance was read at 450 nm on a microplate reader (Multiskan, Thermo, USA).

[3] = In vitro simulated digestion (mouth, gastric, intestinal stages), HPLC; assay type: in vitro ADME; settings: for decrease of HMZ content after digestion: 37°C
Procedure: The adduct was subjected to in vitro simulated digestion at three stages, namely, the mouth, gastric, and intestinal stages, to evaluate its stability ([28], [29]). Briefly, HMZ (2 mg) was dissolved in DMSO (200 μL), diluted with ultra-pure water to the final concentration of 0.5 mg/mL, and then mixed with 6 mL of SSF in a flask. The mixture was magnetically stirred at 100 r/min for 2 min at 37°C to mimic saliva digestion. Afterward, 10 mL of SGF was added to simulate the gastric phase, and the mixture was reacted for 2 h under the same condition. Subsequently, 20 mL of SIF was added for the simulation of intestinal digestion for another 2 h. Samples (100 μL) were withdrawn at the end of each stage of the digestion process for HPLC analysis. Each digestion process was repeated in triplicate, and the content of HMZ was calculated by referring to the calibration curve.

[4] = test system: Caco-2 cells; test: Absorption of HMZ in Caco-2 cells (HPLC of treated solution); assay type: in vitro ADME; settings: 2 h, 37°C
Procedure: HMZ absorption was evaluated according to de Oliveira et al. with slight modifications ([32]). Briefly, Caco-2 cells were inoculated in 6-well plates at the density of 2 × 10^4 cells/well (2 mL) and cultured until 90% confluence at 37°C with 5% CO2. Then, the cells were washed thrice with 1 mL of HBSS. Another 1 mL of HBSS was added for further culture for 30 min. Ten microliters of HMZ solution (pH 7.4) at concentrations of 1–100 μM were added separately and cultivated for 2 h to allow the adduct solution to be absorbed by cells under certain condition (37°C, 5% CO2/95% air). The treated solution was transferred into Eppendorf tubes for HPLC analysis. The control of each sample under different concentrations was the respective sample without incubation, and each of the absorption rate of the adduct by Caco-2 cells was calculated as follows:
(1) Absorption rate (%) =S1−S2/S1× 100%
where S1 is the peak area of the control, and S2 is the peak area of the sample incubated for 2 h.

[5] = Effect of reaction temperature on HMZ amount (one-factor-at-a-time, HPLC); assay type: physicochemical; settings: temperature over 50°C, 3 h
Procedure: A one-factor-at-a-time design was applied to estimate the effects of different reaction parameters on HMF elimination by ZGR, as well as the adduct formation between HMF and ZGR. ZGR/HMF in the molar ratio of 2: 1 was mixed in a three-necked flask and incubated at 40°C for different durations (0.5, 1.0, 1.5, 2.0, 2.5, and 3.0 h) to investigate the effect of reaction time. ZGR/HMF in the molar ratio of 2: 1 was mixed and reacted for 3 h at different temperature levels (20, 30, 40, 50, 60, and 70°C) to study the effect of temperature. In addition, temperature and reaction duration were kept constant at 40°C and 3 h, respectively, to evaluate the effect of different ZGR/HMF molar ratios (4: 1, 3: 1, 2: 1, 1: 1, and 1: 2). At the end of each reaction, 30 μL of the aqueous reaction mixture was diluted with methanol to a final volume of 500 μL for HPLC analysis. HMF and HMZ were quantified by comparing their peak areas to each standard curve.

decrease of HMZ content after digestion ([3]; after SGF (simulated gastric fluid), further 2 h) [%]	decrease of HMZ content after digestion ([3]; after SIF (simulated intestinal fluid), further 2 h) [%]	decrease of HMZ content after digestion ([3]; after SSF (simulated salivary fluid), 2 min) [%]	stability in simulated in vitro digestion ([3]; three digestion conditions)	absorption ([4]; HMZ 1 μM)	absorption rate ([4]; HMZ 1 μM)	absorption ([4]; HMZ 4 μM)	absorption rate ([4]; HMZ 4 μM)	absorption ([4]; HMZ 20 μM)	absorption rate ([4]; HMZ 20 μM)	absorption ([4]; HMZ 100 μM)	absorption rate ([4]; HMZ 100 μM)	thermal stability in the reaction mixture [5]	Compound	liver toxicity [1]	IC50 at 24 h [2] [mM]	IC50 at 48 h [2] [mM]
													O=Cc1ccc(COS(=O)(=O)O)o1 [SMF, 5-sulfo-oxymethylfurfural]	hepatic lesions		
14.19	24.06	7.14	moderate level	0.61 ± 0.75 ×10^-5 μmol	60.74% and 60.74 ± 7.51%	2.85 ± 0.03 ×10^-5 μmol	71.38% and 71.38 ± 0.80%	11.22 ± 0.03 ×10^-5 μmol	56.11% and 56.11 ± 1.85%	34.71 ± 0.17 ×10^-5 μmol	34.71% and 34.71 ± 1.68%	appeared to degrade	COc1cc(CCC(=O)/C=C/c2ccc(CO)o2)ccc1O [HMZ]		41.5 ± 5.33	25.4 ± 3.12
													O=Cc1ccc(CO)o1 [HMF, 5-(Hydroxymethyl)-2-furfural]		35.4 ± 4.03	19.2 ± 2.1
